Assay results published in paper PMC10140166 (The Journal of Biological Chemistry, 2023).
Several values for one entry are separate records, joined by “and”; a condition that tells them apart may be missing. Identical values can stand only once.

Legend:
[1] = tested on: DF-1 cells
[2] = tested on: PRV; format: cell-based, pseudorabies virus
[3] = tested on: HSV-1; conditions: read-out: IC50 against HSV-1; cited from earlier work
[4] = tested on: PRV; test: microbe, parasite or virus in culture; format: cell-based, pseudorabies virus; conditions: for IC50: Suid alphaherpesvirus 1, HeLa, 24 h
[5] = in vitro; conditions: human
[6] = tested on: HSV-2; conditions: read-out: IC50 against HSV-2; cited from earlier work
[7] = tested on: enterovirus 71; conditions: read-out: IC50 against enterovirus 71; cited from earlier work
[8] = tested on: HCMV; conditions: read-out: IC50 against HCMV; cited from earlier work

CCn1c2ccccc2c2cc(Nc3ccnc(NCCCN4CCOCC4)n3)ccc21 [EHop-016]
cytotoxicity / cell viability at the concentration used [1]: without cytotoxicity
viral protein load (Western blot) [2]: reduced the viral protein load

Mazamine A
IC50 [3]: 1000 nM

COc1ccc2c3ccnc(C)c3n(C)c2c1 [Compound 3, 9-methyl-harmine]
inhibitory rate (reduction vs DMSO-treated cells), primary screening [4]: > 90% and > 99%
IC50 [4]: 520 ± 40 nM
CC50 [5]: > 30000 nM

COc1cc(N2CCN(C)CC2)ccc1Nc1nccc(-c2cn(C)c3cnccc23)n1 [AZ191]
reduction of production of infectious virus particles vs DMSO [4]: 1.1 Log
cytotoxicity / cell viability at the concentration used [1]: did not affect cell viability

manzamine A monotartrate
IC50 [3]: 100 nM

ML-141
cytotoxicity / cell viability at the concentration used [1]: without cytotoxicity
viral protein load (Western blot) [2]: reduced the viral protein load

COc1ccc2c(c1)[nH]c1c(C)nccc12 [Compound 2, harmine]
IC50 [3]: 4560 nM
inhibitory rate (reduction vs DMSO-treated cells), primary screening [4]: > 90%
reduction of production of infectious virus particles vs DMSO [4]: 2.3 Log
IC50 [4]: 1190 ± 90 nM
cytotoxicity / cell viability at the concentration used [1]: without cytotoxicity
IC50 [6]: 1470 nM
IC50 [7]: 10000 ± 2500 nM
CC50 [5]: > 30000 nM
IC50 [8]: 710 ± 19 nM

Nc1nc2c(ncn2COCCO)c(=O)[nH]1 [Acyclovir]
reduction (positive control), primary screening [4]: 98%
IC50 [4]: 2810 ± 300 nM

Oc1cccc2c1[nH]c1c(C3=C[C@@]4(O)CC/C=C\CCCCN5CC[C@@H]3[C@]3(C[C@@H]6/C=C\CCCCN6[C@H]34)C5)nccc12 [8-hydroxymanzamine A]
IC50 [3]: 3700 nM

CCN(c1nc(N)c(C(=O)N=C(N)N)nc1Cl)C(C)C [EIPA, 5-[N-ethyl-N-isopropyl] amiloride]
cytotoxicity / cell viability at the concentration used [1]: without cytotoxicity
viral protein load (US9 relative to β-actin, densitometry) [2]: 0.21 ± 0.01

manzamine A monohydrochloride
IC50 [3]: 100 nM
